pIC50: −log10 of the molar value.
Experiments:
EndoC-βH1-Luc cells = experiment: Humanized NSG mice transplanted with EndoC-βH1-Luc cells; type: in vivo, human; settings: 12 mg/kg
Experimental: LentiLuc-blast plasmid was constructed based on the LentiCas9-blast vector (Addgene, 52926). The luciferase gene was driven by a constitutively active EFS promoter. EndoC-βH1 cells were infected with the lentivirus followed by 4 days selection with 20 μg/ml blasticidin to create EndoC-βH1-Luc cells. Adult 6–8 week old female NSG immunodeficient mice (Jackson Laboratory) were transplanted with 5 × 10^5 EndoC-βH1-Luc cells to create a humanized mouse model. Baseline luminescent levels were obtained 5 days after transplantation. 12 mg/kg propargite or vehicle were then administrated for 5 days via intraperitoneal injection (the starting day referred to as day 0). In vivo imaging was performed on day 1, 3, and 5 with an Xtreme Optical and X-ray small animal imaging system. During the imaging, isoflurane was used for anesthesia. 2 mg/150 µl/25 g body weight luciferin potassium salt (Regis, 360223) was applied to each mouse. To generate EndoC-βH1-Luc cells carrying sgGSTT1 or sgGFP, EndoC-βH1-Luc cells were infected with the lentivirus carrying Cas9 and sgRNAs (sgGSTT1 or sgGFP), and purified with 2 days selection using 1 μg/ml puromycin. Adult 6–8-week-old female NSG-immunodeficient mice (Jackson Laboratory) were transplanted with 5 × 10^5 EndoC-βH1-Luc cells carrying sgGSTT1 or sgGFP (control). 12 mg/kg propargite or vehicle were administrated for 3 days via intraperitoneal injection, mice were then sacrificed at day 3. The xenografts were embedded in OCT. The tissue was then sectioned at 5 μm to detect cell death with TUNEL assays (In Situ Cell Death Detection Kit, TMR red, Sigma, 12156792910) and for immunohistochemistry staining analysis of β-cell marker INS to measure cell death rate in EndoC-βH1-Luc cells carrying sgGSTT1 or sgGFP.

GSTT1-/- INS+ cells = experiment: Inhibition curve on INS+ cells derived from GSTT1-/- H1 hESCs; type: cell-based, human; settings: H1 hESC-derived, n = 3; read-out: IC50 for GSTT1-/--1 INS+ cells
Experimental: hESCs-derived INS^+ cells, MSCs[43], neurons, and hepatocytes[44] were derived based on the reported protocols and re-plated on 96-well plates with Accutase digestion. Cardiomyocytes (CMs) were differentiated from H9-MYH6: mCherry reporter line, based on the reported protocol. After overnight incubation, cells were treated with DMSO or different doses of hit compounds for 4 days. After fixation, the cells were stained with markers for each cell type. DAPI was used to stain cell nuclei. Plates were analyzed by ImageXpress^MICRO Automated High-Content Analysis System.
CRISPR sgRNA sequences were designed using the web resources available at http://www.genome-engineering.org/. The target sequences are listed in Supplementary Table 2. Each target sequence was cloned into the pX330-U6-Chimeric_BB-CBh-hSpCas9 vector (Addgene plasmid #42230) to make the gene targeting constructs. To knockout the target genes, two sgRNAs were validated using the surveyor assay in 293T cells, and we chose 1 sgRNA-construct plasmid for further experiments. After validation, H1 or INS^GFP/W HES3 cells were dissociated using Accutase (STEM CELL) and electroporated (8 × 10^5 cells per sample) with 4 μg sgRNA-construct plasmids using Human Stem Cell Nucleofector^TM solution (Lonza) following manufacturer’s instructions. […] A portion of the cells was analyzed by DNA sequencing. […]

mDA neurons = experiment: Survival of hESC-derived midbrain dopamine neurons; type: cell-based, human
Experimental: Scale bars, 50 μm. b Relative cell survival rate of cortical- and mDA-neurons treated with DMSO or different doses of propargite. […] White arrows indicate propargite-treated mDA cells (TH; red) co-stained with the DNA damage marker (rH2AX; green), and all cells were counterstained with DAPI (blue). […] Values presented as mean ± S.D. p-value was calculated by unpaired two-tailed Student’s t-test were *p < 0.05, **p < 0.01. n.s. indicates a non-significant difference.
Cortical and mDA differentiation from hESC were done with similar protocols those published by our lab previously[36],[37].

## 2-(4-tert-butylphenoxy)-cyclohexyl prop-2-yne-1-sulfonate [propargite]
EndoC-βH1-Luc cells; day 3
  cell death rate (TUNEL) of EndoC-βH1-Luc cells carrying sgGSTT1 vs sgGFP: higher cell death rate
  luciferase signal of EndoC-βH1-Luc cells: slower rate increase
EndoC-βH1-Luc cells; day 5
  luciferase signal of EndoC-βH1-Luc cells: marked decrease
GSTT1-/- INS+ cells
  pIC50: 5.93
mDA neurons; concentrations at 1 and 3 μM, compared with cortical neurons
  mDA neuron cell death: significant mDA neuron cell death
mDA neurons; propargite 1 µM, 3 µM
  decrease of total cell number in DA neuron cultures: 40-60%
mDA neurons; propargite 3 μM, FOXA2+ cells
  sensitivity of GSTT1-/- hESC-derived mDA neurons vs GSTT1+/+ or GSTM1-/-: more sensitive

Reference: article PMC6240096, “A hPSC-based platform to discover gene-environment interactions that impact human β-cell and dopamine neuron survival” (Nature Communications, 2018)
